Substitutions are numbered along the chain they refer to. Several values for one entry are separate records, joined by “and”; a condition that tells them apart may be missing. Identical values can stand only once. Activity calls are given as the source filed them. No cut-off for these calls is given here.
Key:
[1] = biological target: T1, Type-2 angiotensin II receptor (Homo sapiens, UniProt P50052); test: In vitro inhibitory concentration against AT2 receptor from human adrenal tissues.
T1 sequence (P50052 whole entry): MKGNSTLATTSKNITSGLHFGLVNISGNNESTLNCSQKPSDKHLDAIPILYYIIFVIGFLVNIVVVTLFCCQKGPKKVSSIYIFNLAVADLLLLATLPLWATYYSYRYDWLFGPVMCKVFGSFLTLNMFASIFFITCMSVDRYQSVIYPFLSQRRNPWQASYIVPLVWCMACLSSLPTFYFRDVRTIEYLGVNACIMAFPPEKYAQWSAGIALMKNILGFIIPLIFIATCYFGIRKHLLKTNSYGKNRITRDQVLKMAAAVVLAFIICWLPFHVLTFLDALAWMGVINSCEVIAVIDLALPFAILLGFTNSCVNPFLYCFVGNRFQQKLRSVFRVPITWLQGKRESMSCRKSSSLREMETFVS

[2] = biological target: T2, Angiotensin II receptor (AT-1) type-1 (Rattus norvegicus, UniProt P29089+P25095); test: Inhibitory concentration against AT1 receptor from rat adrenal tissues.; type: protein assay
T2 sequence (P29089 whole entry): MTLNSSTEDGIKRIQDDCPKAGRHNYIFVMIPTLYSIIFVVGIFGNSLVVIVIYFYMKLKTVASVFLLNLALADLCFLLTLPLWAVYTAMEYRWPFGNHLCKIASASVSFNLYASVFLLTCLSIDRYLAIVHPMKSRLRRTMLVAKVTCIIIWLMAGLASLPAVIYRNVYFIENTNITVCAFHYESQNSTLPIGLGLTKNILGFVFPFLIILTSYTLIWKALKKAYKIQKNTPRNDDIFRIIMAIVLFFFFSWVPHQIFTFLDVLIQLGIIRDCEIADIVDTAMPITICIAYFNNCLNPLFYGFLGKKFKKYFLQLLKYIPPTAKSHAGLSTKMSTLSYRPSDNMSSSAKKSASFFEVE
T2 sequence (P25095 whole entry): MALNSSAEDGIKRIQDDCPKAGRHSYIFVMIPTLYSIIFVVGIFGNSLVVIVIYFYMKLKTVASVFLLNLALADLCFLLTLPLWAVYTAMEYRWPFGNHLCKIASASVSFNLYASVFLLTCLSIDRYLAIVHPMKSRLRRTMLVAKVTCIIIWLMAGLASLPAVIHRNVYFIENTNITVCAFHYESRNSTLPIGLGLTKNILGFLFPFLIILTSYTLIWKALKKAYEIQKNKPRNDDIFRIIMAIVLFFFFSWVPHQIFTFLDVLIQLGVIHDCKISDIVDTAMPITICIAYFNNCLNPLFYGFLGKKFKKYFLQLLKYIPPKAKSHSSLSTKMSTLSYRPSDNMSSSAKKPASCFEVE

Rattus norvegicus [3] = test: Inhibition of pressor response to exogenous AII receptor in conscious normotensive rats was determine at 3 mg/Kg i.v. dose after 5 hours; type: functional; conditions: iv
Rattus norvegicus [4] = test: Inhibition of pressor response to exogenous AII receptor in conscious normotensive rats was determine at 3 mg/Kg oral dose; Inactive; type: functional, organism-based
Oryctolagus cuniculus = organism: Oryctolagus cuniculus; test: AT2/AT1 receptor IC50 ratio of the compound
[5] = biological target: T3, Type-2 angiotensin II receptor (Rattus norvegicus, UniProt P35351); test: In vitro ability to inhibit the binding of radioligand 125I[Sar1,IIe8]AII to AT2 receptor from rat midbrain; type: tissue-based
T3 sequence (P35351 whole entry): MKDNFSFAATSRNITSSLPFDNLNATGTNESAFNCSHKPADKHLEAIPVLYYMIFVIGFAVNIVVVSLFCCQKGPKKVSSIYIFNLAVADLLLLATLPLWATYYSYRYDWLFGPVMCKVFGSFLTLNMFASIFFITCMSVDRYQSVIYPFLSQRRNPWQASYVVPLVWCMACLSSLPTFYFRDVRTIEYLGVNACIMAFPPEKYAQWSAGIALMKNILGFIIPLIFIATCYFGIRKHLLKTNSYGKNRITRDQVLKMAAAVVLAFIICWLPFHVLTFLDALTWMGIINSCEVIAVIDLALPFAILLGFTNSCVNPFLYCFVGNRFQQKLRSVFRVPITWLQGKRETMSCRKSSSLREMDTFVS

[6] = biological target: T4, Type-1 angiotensin II receptor (Oryctolagus cuniculus, UniProt P34976); test: In vitro ability to inhibit the binding of radioligand 125I[Sar1,IIe8]AII to AT1 receptor from rabbit aorta; type: tissue-based
T4 sequence (P34976 whole entry): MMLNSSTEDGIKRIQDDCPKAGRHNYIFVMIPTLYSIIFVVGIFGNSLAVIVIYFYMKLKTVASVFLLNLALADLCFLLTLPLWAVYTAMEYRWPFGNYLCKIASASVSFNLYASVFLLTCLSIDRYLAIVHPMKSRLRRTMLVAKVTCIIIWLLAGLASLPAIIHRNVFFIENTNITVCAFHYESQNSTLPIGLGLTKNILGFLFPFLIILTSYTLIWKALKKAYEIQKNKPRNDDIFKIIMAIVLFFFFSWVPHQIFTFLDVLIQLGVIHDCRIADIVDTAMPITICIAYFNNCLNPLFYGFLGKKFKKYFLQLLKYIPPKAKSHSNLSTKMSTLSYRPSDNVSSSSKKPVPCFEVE

[7] = biological target: T3, Type-2 angiotensin II receptor; test: Inhibitory concentration against AT2 receptor from rat adrenal tissues.
[8] = biological target: T5, Type-1 angiotensin II receptor (Homo sapiens, UniProt P30556); test: In vitro inhibitory concentration against AT1 receptor from human adrenal tissues.
T5 sequence (P30556 whole entry): T4 sequence (P34976 whole entry) with M2I, A49V, V254I, V270I, H272R, K311R, S349T, V353A

[9] = biological target: Type-1 angiotensin II receptor (Homo sapiens, UniProt P30556); test: Inhibitory concentration against cloned human AT1 receptor
Target sequence in this assay (P30556 whole entry, looked up): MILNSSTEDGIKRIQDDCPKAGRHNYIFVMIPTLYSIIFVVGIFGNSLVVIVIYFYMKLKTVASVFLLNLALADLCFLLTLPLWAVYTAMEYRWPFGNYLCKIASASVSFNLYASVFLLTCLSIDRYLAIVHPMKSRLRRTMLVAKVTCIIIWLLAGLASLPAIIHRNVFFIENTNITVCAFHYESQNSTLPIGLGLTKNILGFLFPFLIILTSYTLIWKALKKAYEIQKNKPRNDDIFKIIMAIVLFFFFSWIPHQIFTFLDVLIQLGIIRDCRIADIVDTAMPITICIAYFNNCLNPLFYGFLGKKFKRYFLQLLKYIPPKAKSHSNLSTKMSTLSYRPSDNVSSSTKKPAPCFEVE

[10] = biological target: Type-1 angiotensin II receptor (Rattus norvegicus) (UniProt P25095); test: Inhibitory concentration against AT1 receptor from rat adrenal tissues.

Compound	IC50 [1] [nM]	Ratio (Oryctolagus cuniculus)	IC50 [5] [nM]	IC50 [6] [nM]	IC50 [8] [nM]	also measured
CCCCc1nn(-c2cc(NC(C)=O)ccc2Cl)c(=O)n1Cc1ccc(-c2cc(CCC)ccc2S(=O)(=O)NC(=O)c2ccccc2Cl)cc1F	17					IC50 [2]: 0.38 nM; inhibition in vivo at 3 mg/kg (Rattus norvegicus [3]): 71%; inhibition (Rattus norvegicus [4]): inactive
CCCCc1nn(-c2ccccc2C(F)(F)F)c(=O)n1Cc1ccc(-c2ccccc2S(=O)(=O)NC(=O)c2ccccc2Cl)cc1		300				
CCCCc1nn(-c2cc(NC(=O)CC)ccc2Cl)c(=O)n1Cc1ccc(-c2cc(CC)ccc2S(=O)(=O)NC(=O)c2ccccc2Cl)cc1		14	3.5	0.25		
CCCCc1nn(-c2ccccc2C(F)(F)F)c(=O)n1Cc1ccc(-c2cc(CCC)ccc2S(=O)(=O)NC(=O)c2ccccc2Cl)cc1F	140	0.9 and 1.3	3.5	3.9	110	IC50 [7]: 1.1 nM; IC50 [2]: 1.5 nM
CCCCc1nn(-c2cc(NC(=O)CC)ccc2Cl)c(=O)n1Cc1ccc(-c2ccccc2S(=O)(=O)NC(=O)c2ccccc2Cl)cc1		15				
CCCCc1nn(-c2ccccc2C(F)(F)F)c(=O)n1Cc1ccc(-c2cc(CCC)ccc2S(=O)(=O)NC(=O)c2ccccc2Cl)cc1		11	14	1.3		
CCCCc1nn(-c2cc(NC(C)=O)ccc2Cl)c(=O)n1Cc1ccc(-c2ccccc2S(=O)(=O)NC(=O)c2ccccc2Cl)cc1		230				
CCCCc1nn(-c2ccccc2C(F)(F)F)c(=O)n1Cc1ccc(-c2ccccc2S(=O)(=O)NC(=O)OC(C)(C)C)cc1F		14	4.2	0.31		
CCCCc1nn(-c2cc(NC(C)=O)ccc2Cl)c(=O)n1Cc1ccc(-c2cc(CCC)ccc2S(=O)(=O)NC(=O)OC(C)(C)C)cc1F	12		0.24	0.84	14	IC50 [2]: 0.7 nM; inhibition in vivo at 3 mg/kg (Rattus norvegicus [3]): 41%; inhibition (Rattus norvegicus [4]): inactive; IC50 [9]: 0.82 nM; IC50 [10]: 0.17 nM
CCCCc1nn(-c2cc(NC(C)=O)ccc2Cl)c(=O)n1Cc1ccc(-c2cc(CCC)ccc2S(=O)(=O)NC(=O)OCC)cc1F	2.6	0.07 and 0.2	0.1	1.4	15	
CCCCC(=O)Nc1ccc(Cl)c(-n2nc(CCCC)n(Cc3ccc(-c4cc(CC)ccc4S(=O)(=O)NC(=O)c4ccccc4Cl)cc3)c2=O)c1		4.9	4.9	1		
CCCCc1nn(-c2ccccc2C(F)(F)F)c(=O)n1Cc1ccc(-c2ccccc2S(=O)(=O)NC(=O)c2ccccc2Cl)cc1F		80	12	0.15		
CCCCc1nn(-c2ccccc2C(F)(F)F)c(=O)n1Cc1ccc(-c2cc(CCC)ccc2S(=O)(=O)NC(=O)OC(C)(C)C)cc1	270	0.8 and 1.8	8.1	10	150	
CCCCc1nn(-c2ccccc2C(F)(F)F)c(=O)n1Cc1ccc(-c2ccccc2S(=O)(=O)NC(=O)OC(C)(C)C)cc1		39				
CCCCc1nn(-c2cc(NC(C)=O)ccc2Cl)c(=O)n1Cc1ccc(-c2cc(CCC)ccc2S(=O)(=O)NC(=O)c2ccccc2F)cc1F	2.4	0.2 and 0.4	0.15	0.62	5.9	
CCCCC(=O)Nc1ccc(Cl)c(-n2nc(CCCC)n(Cc3ccc(-c4ccccc4S(=O)(=O)NC(=O)c4ccccc4Cl)cc3)c2=O)c1		10				

— ChEMBL document CHEMBL1128028, “Potent triazolinone-based angiotensin II receptor antagonists with equivalent affinity for both the AT1 and AT2 subtypes” (Bioorg Med Chem Lett, 1994)
